From publication PMC12871559, “A general model for analysis of linear and hyperbolic enzyme inhibition mechanisms” (FEBS Open Bio, 2025)

What was measured:
Experiment in all cases: initial rates of NPβglc hydrolysis at […] nm, Lineweaver-Burk replots
Type in all cases: biochemical
[1] = biological target: T1, Sfβgly (Spodoptera frugiperda, UniProt O61594, S247Y)
T1 construct: only point mutants assayed here

[2] = biological target: T2, Sfβgly (Spodoptera frugiperda, UniProt O61594, N249A)
T2 construct: only point mutants assayed here
T2 sequence (O61594 17-509 limits assumed, stated change not applied): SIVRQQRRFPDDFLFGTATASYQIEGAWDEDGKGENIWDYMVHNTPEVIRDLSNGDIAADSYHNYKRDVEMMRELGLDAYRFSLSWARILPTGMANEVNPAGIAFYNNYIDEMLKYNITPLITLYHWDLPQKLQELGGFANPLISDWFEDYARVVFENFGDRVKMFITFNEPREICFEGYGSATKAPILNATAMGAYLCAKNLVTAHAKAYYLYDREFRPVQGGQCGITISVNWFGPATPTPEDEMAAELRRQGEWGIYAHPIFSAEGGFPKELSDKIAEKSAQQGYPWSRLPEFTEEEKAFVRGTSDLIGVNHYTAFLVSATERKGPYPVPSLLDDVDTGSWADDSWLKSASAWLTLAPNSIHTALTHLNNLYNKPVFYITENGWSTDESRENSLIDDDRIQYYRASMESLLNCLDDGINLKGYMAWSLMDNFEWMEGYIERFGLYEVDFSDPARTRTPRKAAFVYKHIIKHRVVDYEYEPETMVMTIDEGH

[3] = biological target: T3, Sfβgly (Spodoptera frugiperda, UniProt O61594, F251A)
T3 construct: only point mutants assayed here
T3 sequence (O61594 17-509 limits assumed, stated change not applied): as above

[4] = biological target: T4, Sfβgly (Spodoptera frugiperda, UniProt O61594, N249Q)
T4 construct: only point mutants assayed here
T4 sequence (O61594 17-509 limits assumed, stated change not applied): as above

T1 sequence (O61594 17-509 limits assumed, stated change not applied): as above

## c1c[nH]cn1 [imidazole]
[1]
  Ki: 35 mM
[2]
  Ki: 18 mM
[3]
  Ki: 12 mM
[4]
  Ki: 39 mM

## NC(CO)(CO)CO [Tris, 2‐amino‐2‐(hydroxymethyl)‐1,3‐propanediol]
[1]
  Ki: 71 mM
[2]
  Ki: 0.6 mM
[3]
  Ki: 10 mM
[4]
  Ki: 32 mM
